How the values were obtained:
Type in all cases: functional, organism-based, Sprague-Dawley
[1] = molecular target: ATP-binding cassette sub-family C member 6 (Rattus norvegicus, UniProt O88269); assay: (§1) TP_TRANSPORTER: Northern blot in vivo SD rat, liver
[2] = molecular target: T1, Hepatic sodium/bile acid cotransporter (Rattus norvegicus, UniProt P26435); assay: as §1
T1 sequence (P26435 whole entry): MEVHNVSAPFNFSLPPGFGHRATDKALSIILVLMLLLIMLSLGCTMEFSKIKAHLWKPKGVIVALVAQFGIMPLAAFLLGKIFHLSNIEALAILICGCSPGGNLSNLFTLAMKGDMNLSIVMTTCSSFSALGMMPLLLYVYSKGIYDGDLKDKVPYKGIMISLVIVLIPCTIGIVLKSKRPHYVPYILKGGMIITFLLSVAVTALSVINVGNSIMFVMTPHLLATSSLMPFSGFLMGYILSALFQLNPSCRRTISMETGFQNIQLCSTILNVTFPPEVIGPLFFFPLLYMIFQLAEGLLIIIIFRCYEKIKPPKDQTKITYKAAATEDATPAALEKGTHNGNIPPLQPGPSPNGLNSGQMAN

[3] = molecular target: T2, ATP-binding cassette sub-family C member 3 (Rattus norvegicus, UniProt O88563); assay: as §1
[4] = molecular target: T2, ATP-binding cassette sub-family C member 3; assay: TP_TRANSPORTER: Western in vivo SD rat, liver

Measured: Activity

T2 sequence (O88563 whole entry): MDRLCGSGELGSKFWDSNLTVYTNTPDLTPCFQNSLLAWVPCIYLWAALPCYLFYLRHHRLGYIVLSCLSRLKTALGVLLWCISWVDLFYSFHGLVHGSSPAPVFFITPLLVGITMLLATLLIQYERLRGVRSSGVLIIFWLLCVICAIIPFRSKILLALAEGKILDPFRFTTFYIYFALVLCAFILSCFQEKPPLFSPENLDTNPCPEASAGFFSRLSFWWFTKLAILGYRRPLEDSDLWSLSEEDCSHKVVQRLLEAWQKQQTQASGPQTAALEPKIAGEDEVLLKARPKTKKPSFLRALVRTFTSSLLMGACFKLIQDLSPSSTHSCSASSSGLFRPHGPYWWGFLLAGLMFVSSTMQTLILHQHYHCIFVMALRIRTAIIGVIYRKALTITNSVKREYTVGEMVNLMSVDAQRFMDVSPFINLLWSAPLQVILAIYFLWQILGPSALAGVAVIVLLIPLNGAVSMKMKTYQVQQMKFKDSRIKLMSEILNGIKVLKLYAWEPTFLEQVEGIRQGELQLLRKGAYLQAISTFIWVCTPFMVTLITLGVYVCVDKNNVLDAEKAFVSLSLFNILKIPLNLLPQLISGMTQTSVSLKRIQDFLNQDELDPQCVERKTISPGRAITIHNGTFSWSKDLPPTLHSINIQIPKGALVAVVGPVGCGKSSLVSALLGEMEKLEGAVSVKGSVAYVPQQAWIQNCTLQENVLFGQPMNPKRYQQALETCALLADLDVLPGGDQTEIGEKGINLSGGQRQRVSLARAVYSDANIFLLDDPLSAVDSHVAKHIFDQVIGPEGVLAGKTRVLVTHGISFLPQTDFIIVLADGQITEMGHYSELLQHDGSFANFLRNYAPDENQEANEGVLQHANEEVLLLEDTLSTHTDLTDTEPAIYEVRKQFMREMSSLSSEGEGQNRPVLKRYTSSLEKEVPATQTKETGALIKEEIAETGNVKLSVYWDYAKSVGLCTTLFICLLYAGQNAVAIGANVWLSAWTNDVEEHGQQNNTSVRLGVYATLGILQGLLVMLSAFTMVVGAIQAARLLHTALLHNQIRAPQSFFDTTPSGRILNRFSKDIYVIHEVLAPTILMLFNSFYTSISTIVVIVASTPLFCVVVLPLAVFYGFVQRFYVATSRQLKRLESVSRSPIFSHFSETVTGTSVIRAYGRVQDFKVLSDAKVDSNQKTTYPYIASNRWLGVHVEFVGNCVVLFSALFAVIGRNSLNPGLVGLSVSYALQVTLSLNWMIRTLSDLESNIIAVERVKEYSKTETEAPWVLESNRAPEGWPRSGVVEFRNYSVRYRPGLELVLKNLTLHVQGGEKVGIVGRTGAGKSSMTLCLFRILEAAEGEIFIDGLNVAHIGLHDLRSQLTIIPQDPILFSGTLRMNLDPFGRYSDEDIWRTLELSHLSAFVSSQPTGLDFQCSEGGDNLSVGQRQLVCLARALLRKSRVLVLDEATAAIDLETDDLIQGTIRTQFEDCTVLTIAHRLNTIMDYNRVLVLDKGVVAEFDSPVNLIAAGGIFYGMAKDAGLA
ATP-binding cassette sub-family C member 6, sequence (O88269 whole entry): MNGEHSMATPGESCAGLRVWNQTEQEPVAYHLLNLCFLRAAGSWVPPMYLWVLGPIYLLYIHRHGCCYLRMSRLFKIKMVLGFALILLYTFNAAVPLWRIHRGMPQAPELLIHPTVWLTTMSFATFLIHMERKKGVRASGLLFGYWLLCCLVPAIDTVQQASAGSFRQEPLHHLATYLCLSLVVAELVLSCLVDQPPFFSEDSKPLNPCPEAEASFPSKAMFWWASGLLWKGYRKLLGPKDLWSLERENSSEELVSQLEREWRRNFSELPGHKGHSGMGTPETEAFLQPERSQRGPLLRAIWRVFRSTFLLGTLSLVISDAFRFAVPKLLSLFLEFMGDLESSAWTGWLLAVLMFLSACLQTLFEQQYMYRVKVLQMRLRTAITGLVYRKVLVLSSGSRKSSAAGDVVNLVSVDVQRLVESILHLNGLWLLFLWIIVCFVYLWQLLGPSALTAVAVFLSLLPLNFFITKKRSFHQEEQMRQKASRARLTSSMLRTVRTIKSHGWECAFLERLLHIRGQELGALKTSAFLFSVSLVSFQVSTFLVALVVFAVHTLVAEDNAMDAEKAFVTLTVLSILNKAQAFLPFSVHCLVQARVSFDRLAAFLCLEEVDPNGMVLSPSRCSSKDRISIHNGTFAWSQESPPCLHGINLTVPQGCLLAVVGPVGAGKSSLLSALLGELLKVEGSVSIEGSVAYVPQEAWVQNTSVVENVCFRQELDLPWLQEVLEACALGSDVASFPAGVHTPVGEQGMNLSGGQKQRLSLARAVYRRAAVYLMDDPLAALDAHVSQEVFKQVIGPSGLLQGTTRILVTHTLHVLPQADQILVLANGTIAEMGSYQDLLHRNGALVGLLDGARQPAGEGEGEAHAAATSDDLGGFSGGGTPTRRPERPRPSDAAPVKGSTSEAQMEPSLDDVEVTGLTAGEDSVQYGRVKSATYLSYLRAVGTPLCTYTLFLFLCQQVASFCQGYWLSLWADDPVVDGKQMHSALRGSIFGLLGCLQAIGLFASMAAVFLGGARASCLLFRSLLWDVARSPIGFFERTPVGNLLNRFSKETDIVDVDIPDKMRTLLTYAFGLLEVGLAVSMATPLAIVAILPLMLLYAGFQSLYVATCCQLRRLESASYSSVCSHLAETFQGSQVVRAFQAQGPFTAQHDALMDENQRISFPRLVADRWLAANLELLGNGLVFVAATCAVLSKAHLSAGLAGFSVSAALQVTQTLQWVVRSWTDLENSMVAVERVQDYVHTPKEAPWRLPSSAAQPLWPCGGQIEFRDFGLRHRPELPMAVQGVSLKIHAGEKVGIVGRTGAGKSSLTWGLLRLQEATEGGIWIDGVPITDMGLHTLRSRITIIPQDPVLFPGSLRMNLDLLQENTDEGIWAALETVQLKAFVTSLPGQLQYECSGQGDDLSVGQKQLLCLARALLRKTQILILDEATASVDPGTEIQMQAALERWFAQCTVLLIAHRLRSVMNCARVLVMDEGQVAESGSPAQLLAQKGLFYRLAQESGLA

CCC1(c2ccccc2)C(=O)NC(=O)NC1=O [PHENOBARBITAL]
inducer [+]: all assays above

O=C=Nc1cccc2ccccc12 [alpha-naphthylisocyanate]
inducer [+]: all assays above

— ChEMBL document CHEMBL2074275, “Characterization of inducible nature of MRP3 in rat liver” (Am J Physiol Gastrointest Liver Physiol, 2000)
